Measured values: patent US12006317B1, “5-substituted aminopyrimido [6′,1′:2,3] imidazo [4,5-c] [2,6] naphthyridine compounds as CK2 inhibitors” (KING FAISAL UNIVERSITY, priority 2023, dated 2024)

Assays:
[1] = system: HL60 (leukemia) cancer cells; test: In vitro cytotoxic activity MTT assay, HL60; assay type: cell-based; conditions: Homo sapiens, HL-60, cells exposed for 96 hours, read-out: IC50, 50% inhibition of cell proliferation
Experimental: (§1) Compounds 1-12 were screened for their in vitro cytotoxic activity utilizing a 3-(4,5-dimethyl-thiazol-2-yl)-2,5-diphenyltetrazolium bromide (MTT) assay against selected cancer human cell lines consisting of PC3 (prostate), HCT116 (colon), A375 (melanoma), H1299 (lung), MIAPaCa-2 (pancreas), HL60 (leukemia), MCF7 (breast), MDA-MB-231 (breast) (T. Mosmann, J. Immmol. Meth., 1983, 65, 55-63). The cells were cultured at 37° C. in RMPI1640 medium supplemented with 10% fetal bovine serum, 50 IU/mL penicillin, and 50 μg/mL streptomycin in a 5% CO2 incubator. All cells were sub-cultured 3 times/week by trypsinisation. Viable cells were seeded and allowed to adhere for 12 h before a test drug was added in 96-well plates at an initial density of 1.0×10^5 cells/mL. Tumour cell lines were separately exposed to various concentrations of the tested compounds followed by incubation at a temperature of 37° C. during 96 h inside a medium of fresh RMPI 1640. Cells were subsequently incubated at 37° C. using MTT at 0.5 mg/mL during 4 h. After removal of supernatant, formazan crystals were dissolved in isopropanol and the optical density was measured at 570 nm. CX-4945 was used as a positive control.

[2] = system: H1299 (lung) cancer cells; test: In vitro cytotoxic activity MTT assay, H1299; assay type: cell-based; conditions: Homo sapiens, NCI-H1299, cells exposed for 96 hours, read-out: IC50, 50% inhibition of cell proliferation
Experimental: as §1

[3] = target: T1, recombinant human CK2 (RRββ-holoenzyme) (Homo sapiens, UniProt P68400); test: CK2 Kinase Assay (33P-ATP, substrate peptide RRRDDDSDDD); assay type: biochemical; conditions: final ATP concentration 15 μM, 10 min at 30° C.; read-out: protein kinase CK2 IC50
T1 construct: purchased Millipore
T1 sequence (P68400 whole entry): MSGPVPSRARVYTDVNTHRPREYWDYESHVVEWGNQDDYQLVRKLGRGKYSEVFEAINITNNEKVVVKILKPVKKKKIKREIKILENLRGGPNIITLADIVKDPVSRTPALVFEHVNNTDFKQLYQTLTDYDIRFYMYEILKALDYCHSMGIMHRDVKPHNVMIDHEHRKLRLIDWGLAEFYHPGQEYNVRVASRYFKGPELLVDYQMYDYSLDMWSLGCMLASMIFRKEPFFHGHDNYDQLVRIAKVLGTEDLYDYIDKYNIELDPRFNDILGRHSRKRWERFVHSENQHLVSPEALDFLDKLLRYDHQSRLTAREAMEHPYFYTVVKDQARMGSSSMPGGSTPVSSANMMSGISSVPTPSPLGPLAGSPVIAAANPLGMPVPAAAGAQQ
T1 sequence (P67870 whole entry partner): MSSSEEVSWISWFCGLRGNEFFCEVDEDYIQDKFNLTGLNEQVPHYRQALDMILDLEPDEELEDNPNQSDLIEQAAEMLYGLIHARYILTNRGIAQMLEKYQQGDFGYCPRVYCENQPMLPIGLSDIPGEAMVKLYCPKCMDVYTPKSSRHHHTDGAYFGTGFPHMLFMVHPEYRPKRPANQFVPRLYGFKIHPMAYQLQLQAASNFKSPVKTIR
Experimental: CK2 Kinase Assay was conducted using the protocol as described in Pierre F. et al; J. Med. Chem. 2011, 54, 635-654. The tested compounds in aqueous solution were added at a volume of 10 μL to a reaction mixture comprising 10 μL of assay dilution buffer (ADB; 20 mM MOPS, pH 7.2, 25 mM β-glycerol phosphate, 5 mM EGTA, 1 mM sodium orthovanadate, and 1 mM dithiothreitol), 10 μL of substrate peptide (RRRDDDSDDD, dissolved in ADB at a concentration of 1 mM), 10 μL of recombinant human CK2 (RRββ-holoenzyme, 25 ng dissolved in ADB; Millipore). Reactions were initiated by the addition of 10 μL of ATP solution (90% 75 mM MgCl2, 75 μM ATP (final ATP concentration:15 μM) dissolved in ADB; 10% [γ-33P] ATP (stock 1 mCi/100 μL; 3000 Ci/mmol (Perkin-Elmer) and maintained for 10 min at 30° C. The reactions were quenched with 100 μL of 0.75% phosphoric acid and then transferred to and filtered through a phosphor cellulose filter plate (Millipore). After washing each well five times with 0.75% phosphoric acid, the plate was dried under vacuum for 5 min and, following the addition of 15 μL of scintillation fluid to each well, the residual radioactivity was measured using a Wallac […]. The IC50 values were derived from eight concentrations of test inhibitors.

[4] = system: MIAPaCa-2 (pancreas) cancer cells; test: In vitro cytotoxic activity MTT assay, MIAPaCa-2; assay type: cell-based; conditions: Homo sapiens, MIA PaCa-2, cells exposed for 96 hours, read-out: IC50, 50% inhibition of cell proliferation
Experimental: as §1

[5] = system: PC3 (prostate) cancer cells; test: In vitro cytotoxic activity MTT assay, PC3; assay type: cell-based; conditions: Homo sapiens, Prostate cell, cells exposed for 96 hours, read-out: IC50, 50% inhibition of cell proliferation
Experimental: as §1

[6] = system: MCF7 (breast) cancer cells; test: In vitro cytotoxic activity MTT assay, MCF7; assay type: cell-based; conditions: Homo sapiens, cells exposed for 96 hours, read-out: IC50, 50% inhibition of cell proliferation
Experimental: as §1

[7] = system: A375 (melanoma) cancer cells; test: In vitro cytotoxic activity MTT assay, A375; assay type: cell-based; conditions: Homo sapiens, A-375, cells exposed for 96 hours, read-out: IC50, 50% inhibition of cell proliferation
Experimental: as §1

[8] = system: MDA-MB-231 (breast) cancer cells; test: In vitro cytotoxic activity MTT assay, MDA-MB-231; assay type: cell-based; conditions: Homo sapiens, cells exposed for 96 hours, read-out: IC50, 50% inhibition of cell proliferation
Experimental: as §1

[9] = system: HCT116 (colon) cancer cells; test: In vitro cytotoxic activity MTT assay, HCT116; assay type: cell-based; conditions: Homo sapiens, HCT-116, cells exposed for 96 hours, read-out: IC50, 50% inhibition of cell proliferation
Experimental: as §1

Clc1cccc(Nc2nc3c(nc4ccncn43)c3cnccc23)c1 [Compound 1, N-(3-chlorophenyl)pyrimido[6′,1′:2,3]imidazo[4,5-c][2,6]naphthyridin-5-amine]
IC50 [1]: 3400 nM | IC50 [2]: 2100 nM | IC50 [3]: 12 nM | IC50 [4]: 900 nM | IC50 [5]: 1300 nM | IC50 [6]: 5100 nM | IC50 [7]: 2800 nM | IC50 [8]: 3900 nM | IC50 [9]: 1200 nM
